These results are taken from publication PMC10385664, “Projection of Target Drug Particle Size in Oral Formulations Using the Refined Developability Classification System (rDCS)” (Pharmaceutics, 2023).

Values joined by “and” are separate entries in the source; they are usually repeats but may differ in a detail not shown here. Identical values can stand only once.

Series [1] is described as follows: Theoretical IDR from the Levich equation with solubility as input. As to conditions: FaSSIF V1.
Description: Dissolution/Transit Balance: Derivation of kdiss based on Intrinsic Dissolution Rate In addition to Equation (S1) (utilizing hdisk and Adisk ra ther than hparticle and Apowder), the Levich equation (Equation (S12)) [11] applies for the dissolution from a rotating disk with a constant surface area under sink conditions and the assumption of convective diffusion without reaction as dissolution mechanism:
where IDR is the intrinsic dissolution rate, D is the diffusion coefficient, ν is the kinematic viscosit y, ω is the rotational velocity and CS is the thermodynamic solubility. The equation can be rewritten to estimate the IDR using the rotational speed of the compressed disk in revolutions per minut e (Equation (S13Error!
For this, a unit conversion factor of 30/π must be applied for the conversion of ω in rad∙s–1 to revolutions per minut e (RPM) in min‐1.
The dissolution rate from the disk surface can be calculated via multiplication of the IDR by the disk surface area Adisk (Equation (S14)):
Equation (S1) (adjusted to the dissolution from a disk surface) and Equation (S14) (Levich equation) were equated to obtain Equation (S15).
Rearrangement of Equation (S15) for hdisk results in an equation for the thickness of the aqueous boundary layer (ABL) of the rotating disk (hdisk) under sink conditions (Equation (S16)): […]
A short description of series [2]: Conversion of Caco-2 Papp(A⟹B) to effective human permeability (Simcyp Papp–Peff correlation). Conditions: for estimated/predicted human Peff: estimated from Caco-2 permeability data; for Estimated human Peff: from Papp(A⟹B) without inhibitor, atenolol and propranolol as calibrators. As to the method:
The Caco-2 Papp values were averaged. […] Estimated Peff values were used as input for the rDCS and rtarget calculations. […]
μM) to study transporter‐mediated efflux effects. In those experiments, elacridar was included in both compartments during the equilibration time and assay. The starting concentration (C0) was confirmed by […]
Details of the analytical standard method are presented in Ta ble S8. Measurements were performed in duplicate and reference […]
Papp values were averaged. To […]
permeability was monitored during the experiment using fluorimetric analysis. The pre‐defined lucifer […]
The built‐in literature Papp‐Peff […]
propranolol as calibrator substances was used. Estimated Peff values were used as input for the rDCS and rtarget calculations.
Table S8. Details of the LC‐MS/MS method for quantification of API concentrations in Caco‐2 permeability study […]
Acquity™ HSS T3 (1.8 μm) 2.1 x 30 mm (Waters Ltd, Herts, UK) fitted with Column SecurityGuard™ ULTRA Fully Porous Polar C18 cartridge (Phenomenex, […]
Mobile phase A 10 mM ammonium formate + 0.1 % v/v formic acid in water
Mobile phase B 100% Methanol
Gradient time profile 0.60 5 95

Series [3] is described as follows: Disk intrinsic dissolution rate in FaSSIF V1 (µDISS Profiler). It counts as physicochemical. As to conditions: FaSSIF V1, 37 °C, 100 rpm. The protocol: The experimental design was adapted from a standard experimental protocol published previously. Disks (n = 3) with a surface area of 0.0707 cm^2 were prepared by compressing the APIs into disk dies. For this, 5 to 10 mg of the API was compressed for 1 min at 50 bar using a Mini-IDR Tablet Compression System (Heath Scientific Co. Ltd., Milton Keynes, UK). Loose powder on the disk surface or die was removed with compressed air. […] With the disk surface facing upwards, the dies were placed into round-shaped magnetic stirrers and transferred into 20 mL assay vials. The vials were placed in a heating block and pre-heated FaSSIF V1 (10 mL) was added to each vial to start the dissolution experiments. The disks were rotated at 100 rpm and concentrations were measured in situ with UV-spectroscopy using fiber optic dip probes. Experiments were performed in triplicate.
S.2.6. rDCS Customized Investigations: Intrinsic dissolution rate
The concentration‐time curves for IDR determination were recorded with in situ UV‐spectroscopy using fiber optic dip probes. […] The buffer was stirred at 100 rpm and spectra were recorded approximately 1 minut e after addition of the stock solution. […]
Second derivatives of the UV spectra were used to establish the calibration curves. Multiple wavelength ranges were evaluated, and calibration curves were accepted for further investigation when linear […]

The conditions of series [4]: method not disclosed; cited from earlier work.

In the case of `CCn1c(=O)c2c(nc(/C=C/c3ccc(OC)c(OC)c3)n2C)n(CC)c1=O` [Istradefylline, istradefylline], in series [1], the “theoretical IDR (Levich equation with CS as input)” value is reported as 0.346 ± 0.005 µg/min/cm^2. For the same compound, in series [2], the “estimated/predicted human Peff” value was 4.66e-06 cm/s and the “Estimated human Peff” value was 0.000466 cm/s.
For the compound `Cc1ncc(OC[C@@]2(c3cccc(F)c3)C[C@H]2C(=O)Nc2ccc(F)cn2)c(C)n1` [Lemborexant, lemborexant], the “theoretical IDR (Levich equation with CS as input)” value in series [1] is 2.24 ± 0.01 µg/min/cm^2. Also, the “IDR FaSSIF V1 (disk dissolution method)” value in series [3] was 1.99 ± 0.09 µg/min/cm^2 and 1.99 ± 0.09 ^2 µg/min/cm^2. The “Literature logP” value in series [4] is 3.70 [33]. In series [2], the “estimated/predicted human Peff” value was 4.2e-06 cm/s and the “Estimated human Peff” value is 0.00042 cm/s.
In the case of `C[C@@H](c1ncncc1F)[C@](O)(Cn1cncn1)c1ccc(F)cc1F` [Voriconazole, voriconazole], the “IDR FaSSIF V1 (disk dissolution method)” value in series [3] is 84.8 ± 1.4 µg/min/cm^2 and 84.8 ± 1.4 ^2 µg/min/cm^2. For the same compound, the “Literature logP” value in series [4] was 1.80 [32].
